From PMC4198064 (ACS Chemical Neuroscience, 2014)

Tested on: HDAC subtypes 1, 2, 3, and 6
Experiment: [11C]martinostat PET imaging of whole rat brain, blocked tracer binding
Type: in vivo

Nc1cc(F)ccc1NC(=O)/C=C/c1cnn(C/C=C/c2ccccc2)c1 [RGFP966]
blockade of [11C]martinostat binding in whole brain (subtype-selective benzamides, ip pretreatment): 7–10%

CCCC(CCC)C(=O)O [sodium valproate]
blockade of [11C]martinostat uptake in whole brain (500 mg/kg ip, 30 min prior to tracer): 16%
